In patent US11034672B1, “Tyrosine kinase inhibitor compositions, methods of making and methods of use” (Black Diamond Therapeutics, Inc., priority 2018, dated 2021):

How the values were obtained:
Format in all cases: cell-based
EGFR WT [1] = target: T1, EGFR WT (Homo sapiens, UniProt P00533); test: Activity for inhibiting EGFR (Table A), EGFR WT; settings: read-out: EGFR WT, potency code (IC50)
EGFR V3 [2] = target: T2, EGFR V3 (Homo sapiens, UniProt P00533, DELINS30-297G); test: Activity for inhibiting EGFR (Table A), EGFR V3 (EGFR-Viii); settings: read-out: EGFR V3, potency code (IC50)
T2 construct: expressed in transfected cells; host or cells: BaF3 (murine pro-B), retroviral pMXs-IRES-Blasticidin

HER2 S310F [3] = target: T3, HER2 S310F (Homo sapiens, UniProt P04626, S310F); test: Activity for inhibiting HER2 (Table B), HER2 S310F; settings: read-out: HER2 S310F, potency code (IC50)
T3 construct: expressed in transfected cells; host or cells: BaF3 (murine pro-B)
Description: (§1) EC50 values were determined with the same application.

HER2 YVMA [4] = target: T4, HER2 YVMA (Homo sapiens, UniProt P04626, INS775YVMA); test: Activity for inhibiting HER2 (Table B), HER2 YVMA; settings: read-out: HER2 YVMA, potency code (IC50)
T4 construct: expressed in transfected cells; host or cells: BaF3 (murine pro-B)
Description: as §1

EGFR WT [5] = target: T1, EGFR WT; test: BaF3 cell proliferation assay, EGFR WT (Table A); settings: potency code, 3 days, CellTiterGlo, read-out: EGFR WT (Activity for Inhibiting EGFR)
In short: (§2)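 BaF3 cells were infected twice with retrovirus carrying the mutant (pMXs-IRES-Blasticidin, 8 μg/ml polybrene, spinoculation), then selected in 10 μg/ml blasticidin for one week. Resistant pools were then grown without IL-3 to select for IL-3-independent growth. EC50 values were derived from proliferation.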

EGFR V3 [6] = target: T2, EGFR V3; test: BaF3 cell proliferation assay, EGFR V3 (Table A); settings: potency code, 3 days, CellTiterGlo, read-out: EGFR V3 (Activity for Inhibiting EGFR)
In short: as §2

HER2 S310F [7] = target: T3, HER2 S310F; test: BaF3 cell proliferation assay, HER2 S310F (Table B); settings: potency code, 3 days, CellTiterGlo, read-out: HER2 S310F (Activity for Inhibiting HER2)
HER2 YVMA [8] = target: T4, HER2 YVMA; test: BaF3 cell proliferation assay, HER2 YVMA (Table B); settings: potency code, 3 days, CellTiterGlo, read-out: HER2 YVMA (Activity for Inhibiting HER2)

T2 sequence (P00533 with tags, fused parts or gaps DELINS30-297G): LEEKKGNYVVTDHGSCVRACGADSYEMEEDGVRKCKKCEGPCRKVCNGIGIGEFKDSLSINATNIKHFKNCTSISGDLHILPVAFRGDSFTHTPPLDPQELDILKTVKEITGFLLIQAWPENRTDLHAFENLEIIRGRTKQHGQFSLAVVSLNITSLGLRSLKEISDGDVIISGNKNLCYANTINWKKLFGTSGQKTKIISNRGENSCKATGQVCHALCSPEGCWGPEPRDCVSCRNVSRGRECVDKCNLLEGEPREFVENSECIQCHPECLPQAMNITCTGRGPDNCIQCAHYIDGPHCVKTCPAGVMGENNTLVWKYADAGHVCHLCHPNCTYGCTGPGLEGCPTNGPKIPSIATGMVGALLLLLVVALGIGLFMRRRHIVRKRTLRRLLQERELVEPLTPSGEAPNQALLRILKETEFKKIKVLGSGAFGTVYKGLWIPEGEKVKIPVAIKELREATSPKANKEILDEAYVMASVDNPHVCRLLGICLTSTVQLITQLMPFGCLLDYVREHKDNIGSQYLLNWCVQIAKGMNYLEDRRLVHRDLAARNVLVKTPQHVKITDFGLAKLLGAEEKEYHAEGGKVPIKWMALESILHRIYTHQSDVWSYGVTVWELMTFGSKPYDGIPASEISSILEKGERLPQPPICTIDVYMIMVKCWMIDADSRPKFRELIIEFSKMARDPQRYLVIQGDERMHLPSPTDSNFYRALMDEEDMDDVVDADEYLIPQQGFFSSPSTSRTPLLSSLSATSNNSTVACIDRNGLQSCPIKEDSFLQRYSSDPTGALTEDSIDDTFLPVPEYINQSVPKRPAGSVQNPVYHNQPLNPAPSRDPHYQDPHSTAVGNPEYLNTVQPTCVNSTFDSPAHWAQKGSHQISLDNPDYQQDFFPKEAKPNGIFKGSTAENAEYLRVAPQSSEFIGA
T1 sequence (P00533 25-1210 N540K): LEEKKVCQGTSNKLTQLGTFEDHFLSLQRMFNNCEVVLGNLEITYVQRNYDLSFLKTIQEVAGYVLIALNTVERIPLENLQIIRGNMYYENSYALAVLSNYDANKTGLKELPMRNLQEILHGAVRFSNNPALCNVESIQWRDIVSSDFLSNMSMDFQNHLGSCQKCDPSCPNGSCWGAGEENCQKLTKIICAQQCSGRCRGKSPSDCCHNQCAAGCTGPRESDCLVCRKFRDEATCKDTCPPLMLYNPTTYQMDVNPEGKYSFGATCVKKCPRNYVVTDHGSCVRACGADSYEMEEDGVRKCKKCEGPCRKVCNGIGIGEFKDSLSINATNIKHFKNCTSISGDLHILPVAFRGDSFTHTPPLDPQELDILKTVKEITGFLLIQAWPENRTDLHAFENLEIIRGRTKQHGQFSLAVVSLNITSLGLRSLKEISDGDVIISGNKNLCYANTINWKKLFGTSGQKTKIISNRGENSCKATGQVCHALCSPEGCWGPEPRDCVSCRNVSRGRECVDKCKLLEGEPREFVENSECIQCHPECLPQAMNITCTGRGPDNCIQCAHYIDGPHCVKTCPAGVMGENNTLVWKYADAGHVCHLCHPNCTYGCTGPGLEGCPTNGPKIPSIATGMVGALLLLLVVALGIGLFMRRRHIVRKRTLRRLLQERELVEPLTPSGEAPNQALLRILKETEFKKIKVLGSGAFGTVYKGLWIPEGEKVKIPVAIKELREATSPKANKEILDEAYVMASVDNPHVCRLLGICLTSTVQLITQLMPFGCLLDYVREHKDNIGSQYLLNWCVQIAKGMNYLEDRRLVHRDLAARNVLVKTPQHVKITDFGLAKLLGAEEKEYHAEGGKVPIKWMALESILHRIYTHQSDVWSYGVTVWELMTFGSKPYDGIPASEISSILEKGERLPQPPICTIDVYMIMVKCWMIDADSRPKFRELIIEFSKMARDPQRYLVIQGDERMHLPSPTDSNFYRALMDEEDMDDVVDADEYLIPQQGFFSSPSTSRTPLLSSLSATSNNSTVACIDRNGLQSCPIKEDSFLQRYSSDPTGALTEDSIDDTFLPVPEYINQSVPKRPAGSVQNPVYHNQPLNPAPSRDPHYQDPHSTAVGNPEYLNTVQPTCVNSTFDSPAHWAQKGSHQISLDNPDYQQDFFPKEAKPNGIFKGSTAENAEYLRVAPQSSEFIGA
T3 sequence (P04626 23-1255 S310F): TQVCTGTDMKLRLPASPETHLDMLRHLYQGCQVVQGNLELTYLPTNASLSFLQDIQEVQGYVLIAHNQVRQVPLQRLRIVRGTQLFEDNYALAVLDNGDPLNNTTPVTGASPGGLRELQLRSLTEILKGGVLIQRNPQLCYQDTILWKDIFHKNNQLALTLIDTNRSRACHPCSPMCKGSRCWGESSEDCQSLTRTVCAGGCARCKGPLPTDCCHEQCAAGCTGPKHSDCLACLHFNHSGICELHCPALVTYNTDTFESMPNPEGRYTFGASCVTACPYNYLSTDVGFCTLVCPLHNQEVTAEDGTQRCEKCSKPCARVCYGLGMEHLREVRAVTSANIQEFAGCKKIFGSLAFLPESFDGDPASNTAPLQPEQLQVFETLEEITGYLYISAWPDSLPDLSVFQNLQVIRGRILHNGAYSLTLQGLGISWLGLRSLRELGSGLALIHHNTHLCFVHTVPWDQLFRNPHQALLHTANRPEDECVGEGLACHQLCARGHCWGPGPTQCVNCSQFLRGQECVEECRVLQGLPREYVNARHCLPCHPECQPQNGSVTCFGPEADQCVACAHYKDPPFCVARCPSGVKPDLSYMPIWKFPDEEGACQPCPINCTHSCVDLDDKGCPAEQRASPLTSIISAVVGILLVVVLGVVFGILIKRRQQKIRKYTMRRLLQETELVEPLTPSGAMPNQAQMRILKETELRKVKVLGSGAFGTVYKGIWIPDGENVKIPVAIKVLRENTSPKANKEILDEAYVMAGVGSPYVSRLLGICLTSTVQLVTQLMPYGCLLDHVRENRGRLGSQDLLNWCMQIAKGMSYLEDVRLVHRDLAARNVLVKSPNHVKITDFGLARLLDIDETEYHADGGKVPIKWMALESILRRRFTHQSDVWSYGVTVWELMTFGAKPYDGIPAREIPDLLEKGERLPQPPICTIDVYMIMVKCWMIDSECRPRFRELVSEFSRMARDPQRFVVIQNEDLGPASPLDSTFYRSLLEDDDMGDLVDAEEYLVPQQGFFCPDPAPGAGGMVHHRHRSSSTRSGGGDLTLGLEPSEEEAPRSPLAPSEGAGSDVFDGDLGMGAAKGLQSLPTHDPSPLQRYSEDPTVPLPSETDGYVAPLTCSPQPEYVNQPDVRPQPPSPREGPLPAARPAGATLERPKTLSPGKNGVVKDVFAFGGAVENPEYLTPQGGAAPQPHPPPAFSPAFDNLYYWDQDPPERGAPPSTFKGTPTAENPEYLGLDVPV
T4 sequence (P04626 with tags, fused parts or gaps INS775YVMA): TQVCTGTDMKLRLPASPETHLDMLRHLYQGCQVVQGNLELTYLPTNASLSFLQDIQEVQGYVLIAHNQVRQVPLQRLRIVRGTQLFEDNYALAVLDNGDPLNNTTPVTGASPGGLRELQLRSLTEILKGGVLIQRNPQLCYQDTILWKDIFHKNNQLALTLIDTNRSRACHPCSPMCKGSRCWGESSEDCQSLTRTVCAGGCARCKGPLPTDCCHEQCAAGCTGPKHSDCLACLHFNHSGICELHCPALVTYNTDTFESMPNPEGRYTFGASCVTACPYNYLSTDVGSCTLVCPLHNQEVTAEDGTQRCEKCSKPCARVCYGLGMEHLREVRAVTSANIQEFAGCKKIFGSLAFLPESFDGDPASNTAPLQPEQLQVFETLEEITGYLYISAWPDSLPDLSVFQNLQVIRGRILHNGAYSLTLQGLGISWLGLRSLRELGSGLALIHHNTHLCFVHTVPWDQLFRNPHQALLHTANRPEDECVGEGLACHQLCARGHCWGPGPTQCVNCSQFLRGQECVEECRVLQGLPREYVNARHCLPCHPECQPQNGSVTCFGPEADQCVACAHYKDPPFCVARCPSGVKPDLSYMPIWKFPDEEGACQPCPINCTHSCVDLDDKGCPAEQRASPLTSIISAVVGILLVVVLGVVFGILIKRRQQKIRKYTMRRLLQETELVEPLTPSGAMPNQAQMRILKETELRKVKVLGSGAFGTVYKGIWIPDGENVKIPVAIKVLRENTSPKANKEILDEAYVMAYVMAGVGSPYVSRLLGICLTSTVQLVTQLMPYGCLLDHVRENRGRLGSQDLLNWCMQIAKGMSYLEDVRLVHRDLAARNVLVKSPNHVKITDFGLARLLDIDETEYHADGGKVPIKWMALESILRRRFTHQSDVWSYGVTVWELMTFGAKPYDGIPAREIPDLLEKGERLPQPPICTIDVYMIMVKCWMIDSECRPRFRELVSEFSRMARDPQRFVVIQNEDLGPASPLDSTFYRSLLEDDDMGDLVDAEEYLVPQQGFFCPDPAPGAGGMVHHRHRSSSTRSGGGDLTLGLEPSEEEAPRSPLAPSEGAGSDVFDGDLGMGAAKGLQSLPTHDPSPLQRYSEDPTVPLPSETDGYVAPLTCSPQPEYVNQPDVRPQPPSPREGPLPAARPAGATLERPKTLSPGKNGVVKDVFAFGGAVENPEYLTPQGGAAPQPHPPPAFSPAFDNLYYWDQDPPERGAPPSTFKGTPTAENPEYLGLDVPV

Row | Structure (SMILES) | IC50 (EGFR WT [1]) | IC50 (EGFR V3 [2]) | IC50 (HER2 S310F [3]) | IC50 (HER2 YVMA [4]) | IC50 (EGFR WT [5]) | IC50 (EGFR V3 [6]) | IC50 (HER2 S310F [7]) | IC50 (HER2 YVMA [8])
1 | C=CC(=O)Nc1cc2c(Nc3ccc(OCc4ccccn4)c(Cl)c3)ncnc2cc1OC[C@H]1C[C@@H]2CN(C)C[C@@H]2C1 [compound 103, N-(4-((3-chloro-4-(pyridin-2-ylmethoxy)phenyl)amino)-7-(((3aR,5s,6aS)-2-methyloctahydrocyclopenta[c]pyrrol-5-yl)methoxy)quinazolin-6-yl)acrylamide] | 0.2 to 0.3 µM | 0.03 to 0.05 µM | 0.01 to 0.02 µM | 0.05 to 0.1 µM | 0.2 to 0.3 µM | 0.03 to 0.05 µM | 0.01 to 0.02 µM | 0.05 to 0.1 µM
2 | C=CC(=O)Nc1cc2c(Nc3ccc(OCc4cccc(F)n4)c(Cl)c3)ncnc2cc1OCCN1CC2CCC(C1)O2 [compound 156] | > 1 µM | 0.05 to 0.1 µM | 0.03 to 0.05 µM | 0.2 to 0.3 µM | > 1 µM | 0.05 to 0.1 µM | 0.03 to 0.05 µM | 0.2 to 0.3 µM
3 | C=CC(=O)Nc1cc2c(Nc3ccc(OCc4cccc(C)n4)c(Cl)c3)ncnc2cc1OCCN1CCOCC1 [compound 128] | 0.5 to 1 µM | 0.1 to 0.2 µM | 0.1 to 0.2 µM | 0.3 to 0.5 µM | 0.5 to 1 µM | 0.1 to 0.2 µM | 0.1 to 0.2 µM | 0.3 to 0.5 µM
4 | C=CC(=O)Nc1cc2c(Nc3ccc(OCc4ccccn4)cn3)ncnc2cc1OC1CCN(C)C1 (stereo not drawn) [compound 61] | > 1 µM | 0.3 to 0.5 µM | 0.3 to 0.5 µM | > 1 µM | > 1 µM | 0.3 to 0.5 µM | 0.3 to 0.5 µM | > 1 µM
5 | C=CC(=O)Nc1cc2c(Nc3ccc(OCc4cccc(C)n4)c(Cl)c3)ncnc2cc1OCCCN1CCOCC1 [compound 129] | 0.5 to 1 µM | 0.1 to 0.2 µM | 0.03 to 0.05 µM | 0.1 to 0.2 µM | 0.5 to 1 µM | 0.1 to 0.2 µM | 0.03 to 0.05 µM | 0.1 to 0.2 µM
6 | C=CC(=O)Nc1cc2c(Nc3ccc(OCc4cccc(C)n4)c(Cl)c3)ncnc2cc1OCCCN1CC(OC)C1 [compound 138] | 0.1 to 0.2 µM | 0.05 to 0.1 µM | 0.03 to 0.05 µM | 0.05 to 0.1 µM | 0.1 to 0.2 µM | 0.05 to 0.1 µM | 0.03 to 0.05 µM | 0.05 to 0.1 µM
7 | C=CC(=O)Nc1cc2c(Nc3ccc(OCc4cccc(F)n4)c(Cl)c3)ncnc2cc1OCCN1CCOCC1 [compound 154] | 0.5 to 1 µM | 0.03 to 0.05 µM | 0.03 to 0.05 µM | 0.1 to 0.2 µM | 0.5 to 1 µM | 0.03 to 0.05 µM | 0.03 to 0.05 µM | 0.1 to 0.2 µM
8 | C=CC(=O)Nc1cc2c(Nc3ccc(OCc4ccccn4)c(Cl)c3)ncnc2cc1OCC1(N)CC1 [compound 55] | > 1 µM | 0.05 to 0.1 µM | 0.05 to 0.1 µM | 0.2 to 0.3 µM | > 1 µM | 0.05 to 0.1 µM | 0.05 to 0.1 µM | 0.2 to 0.3 µM
9 | C=CC(=O)Nc1cc2c(Nc3ccc(OCc4ccnc(C)c4)c(Cl)c3)ncnc2cc1OCCN1CCOCC1 [compound 142] | 0.5 to 1 µM | 0.1 to 0.2 µM | 0.3 to 0.5 µM | > 1 µM | 0.5 to 1 µM | 0.1 to 0.2 µM | 0.3 to 0.5 µM | > 1 µM
10 | C=CC(=O)Nc1cc2c(Nc3ccc(OCc4cccc(F)n4)c(Cl)c3)ncnc2cc1OCCCN1CCOCC1 [compound 153] | 0.5 to 1 µM | 0.03 to 0.05 µM | 0.01 to 0.02 µM | 0.05 to 0.1 µM | 0.5 to 1 µM | 0.03 to 0.05 µM | 0.01 to 0.02 µM | 0.05 to 0.1 µM
11 | C=CC(=O)Nc1cc2c(Nc3ccc(OCc4cccnn4)c(Cl)c3)ncnc2cc1OCCCN1CC(OC)C1 [compound 177] | 0.5 to 1 µM | 0.03 to 0.05 µM | 0.01 to 0.02 µM | 0.05 to 0.1 µM | 0.5 to 1 µM | 0.03 to 0.05 µM | 0.01 to 0.02 µM | 0.05 to 0.1 µM
12 | C=CC(=O)Nc1cc2c(Nc3ccc(OCc4ccccn4)c(Cl)c3)ncnc2cc1N1CC2(CCN2C)C1 [compound 50] | > 1 µM | 0.03 to 0.05 µM | 0.2 to 0.3 µM | > 1 µM | > 1 µM | 0.03 to 0.05 µM | 0.2 to 0.3 µM | > 1 µM
13 | C=CC(=O)Nc1cc2c(Nc3ccc(OCc4ccccn4)c(Cl)c3)ncnc2cc1OCCN1CCS(=O)(=O)CC1 [compound 125] | 0.5 to 1 µM | 0.1 to 0.2 µM | 0.1 to 0.2 µM | > 1 µM | 0.5 to 1 µM | 0.1 to 0.2 µM | 0.1 to 0.2 µM | > 1 µM
14 | C=CC(=O)Nc1cc2c(Nc3ccc(OCc4cnccn4)c(Cl)c3)ncnc2cc1OCCN1CCOCC1 [compound 176] | > 1 µM | 0.03 to 0.05 µM | 0.02 to 0.03 µM | 0.1 to 0.2 µM | > 1 µM | 0.03 to 0.05 µM | 0.02 to 0.03 µM | 0.1 to 0.2 µM
15 | C=CC(=O)Nc1cc2c(Nc3ccc(OCc4cccc(F)n4)c(Cl)c3)ncnc2cc1OCCCN1C[C@@H]2C[C@H]1CO2 [compound 161] | 0.2 to 0.3 µM | 0.03 to 0.05 µM | 0.03 to 0.05 µM | 0.1 to 0.2 µM | 0.2 to 0.3 µM | 0.03 to 0.05 µM | 0.03 to 0.05 µM | 0.1 to 0.2 µM
16 | C=CC(=O)Nc1cc2c(Nc3ccc(OCc4cccnn4)c(Cl)c3)ncnc2cc1OCCN1CC(OC)C1 [compound 174] | > 1 µM | 0.05 to 0.1 µM | 0.05 to 0.1 µM | 0.3 to 0.5 µM | > 1 µM | 0.05 to 0.1 µM | 0.05 to 0.1 µM | 0.3 to 0.5 µM
17 | C=CC(=O)Nc1cc2c(Nc3cc(Cl)c(OCc4cccc(F)c4)cc3F)ncnc2cc1O[C@@H]1CCN(C)C1 [compound 133] | 0.2 to 0.3 µM | 0.1 to 0.2 µM | 0.05 to 0.1 µM | 0.5 to 1 µM | 0.2 to 0.3 µM | 0.1 to 0.2 µM | 0.05 to 0.1 µM | 0.5 to 1 µM
18 | C=CC(=O)Nc1cc2c(Nc3ccc(OCc4ccccn4)c(Cl)c3)ncnc2cc1OCCN1CC2(CCN2C)C1 [compound 115] | 0.2 to 0.3 µM | 0.03 to 0.05 µM | 0.03 to 0.05 µM | 0.05 to 0.1 µM | 0.2 to 0.3 µM | 0.03 to 0.05 µM | 0.03 to 0.05 µM | 0.05 to 0.1 µM
19 | C=CC(=O)Nc1cc2c(Nc3ccc(OCc4ccccn4)c(Cl)c3)ncnc2cc1OCCC1COCCN1C (stereo not drawn) [compound 120, N-(4-((3-chloro-4-(pyridin-2-ylmethoxy)phenyl)amino)-7-(2-(4-methylmorpholin-3-yl)ethoxy)quinazolin-6-yl)acrylamide] | > 1 µM | 0.03 to 0.05 µM | 0.01 to 0.02 µM | 0.05 to 0.1 µM | > 1 µM | 0.03 to 0.05 µM | 0.01 to 0.02 µM | 0.05 to 0.1 µM
20 | C=CC(=O)Nc1cc2c(Nc3ccc(OCc4ccccn4)c(Cl)c3)ncnc2cc1OCC1CCN1C (stereo not drawn) [compound 116, N-(4-((3-chloro-4-(pyridin-2-ylmethoxy)phenyl)amino)-7-((1-methylazetidin-2-yl)methoxy)quinazolin-6-yl)acrylamide] | 0.5 to 1 µM | 0.03 to 0.05 µM | 0.03 to 0.05 µM | 0.2 to 0.3 µM | 0.5 to 1 µM | 0.03 to 0.05 µM | 0.03 to 0.05 µM | 0.2 to 0.3 µM
21 | C=CC(=O)Nc1cc2c(Nc3ccc(OCc4cccc(F)n4)c(Cl)c3)ncnc2cc1OCCN1CCN(C)CC1 [compound 158] | 0.1 to 0.2 µM | 0.03 to 0.05 µM | 0.03 to 0.05 µM | 0.1 to 0.2 µM | 0.1 to 0.2 µM | 0.03 to 0.05 µM | 0.03 to 0.05 µM | 0.1 to 0.2 µM
22 | C=CC(=O)Nc1cc2c(Nc3ccc(OCc4ccccn4)c(Cl)c3)ncnc2cc1O[C@H]1CCCN(C)CC1 [compound 99, N-(4-((3-chloro-4-(pyridin-2-ylmethoxy)phenyl)amino)-7-((1-methylazepan-4-yl)oxy)quinazolin-6-yl)acrylamide] | 0.2 to 0.3 µM | 0.02 to 0.03 µM | 0.03 to 0.05 µM | 0.2 to 0.3 µM | 0.2 to 0.3 µM | 0.02 to 0.03 µM | 0.03 to 0.05 µM | 0.2 to 0.3 µM
23 | C=CC(=O)Nc1cc2c(Nc3ccc(OCc4cccc(F)c4)c(Cl)c3)ncnc2cc1OCCCN1C[C@@H]2C[C@H]1CO2 [compound 159] | 0.3 to 0.5 µM | 0.1 to 0.2 µM | 0.05 to 0.1 µM | 0.3 to 0.5 µM | 0.3 to 0.5 µM | 0.1 to 0.2 µM | 0.05 to 0.1 µM | 0.3 to 0.5 µM
24 | C=CC(=O)Nc1cc2c(Nc3ccc(Oc4ccccc4)c(C)c3)ncnc2cc1C#C[C@@H]1[C@H]2CN(C)C[C@@H]12 [compound 117, N-(7-(((1R,5S,6s)-3-methyl-3-azabicyclo[3.1.0]hexan-6-yl)ethynyl)-4-((3-methyl-4-phenoxyphenyl)amino)quinazolin-6-yl)acrylamide] | 0.5 to 1 µM | 0.1 to 0.2 µM | 0.05 to 0.1 µM | 0.1 to 0.2 µM | 0.5 to 1 µM | 0.1 to 0.2 µM | 0.05 to 0.1 µM | 0.1 to 0.2 µM
